Results as given in ChEMBL document CHEMBL4265876, “Natural Products with Heteroatom-Rich Ring Systems” (J Nat Prod, 2017).
In brackets after ≈: the same amount, converted by molar mass.

What was measured:
[1] = system: Serratia marcescens; assay: Antibacterial activity against Serratia marcescens; format: functional
[2] = system: Streptococcus pyogenes; assay: Antibacterial activity against Streptococcus hemolyticus; format: functional
[3] = system: Klebsiella pneumoniae; assay: Antibacterial activity against Klebsiella pneumoniae; format: functional
[4] = system: Salmonella sp.; assay: Antibacterial activity against Salmonella sp.; format: functional
[5] = system: Pasteurella multocida; assay: Antibacterial activity against Pasteurella multocida; format: functional
[6] = system: Haemophilus; assay: Antibacterial activity against Haemophilus sp.; format: functional
[7] = system: Morganella morganii; assay: Antibacterial activity against Proteus morgana; format: functional
[8] = system: Providencia rettgeri; assay: Antibacterial activity against Proteus rettgeri; format: functional
[9] = system: Herpesviridae sp.; assay: Antiviral activity against Herpes simplex virus infected in mouse assessed as mouse survival at 400 mg/kg, sc for 28 days; format: functional; conditions: 672 h
[10] = system: HCT-116; assay: Cytotoxicity against human HCT116 cells; format: functional, cell-based
[11] = system: V79; assay: Cytotoxicity against chinese hamster V79 cells; format: cell-based; conditions: Cricetulus griseus
[12] = system: HL-60; assay: Cytotoxicity against human HL60 cells; format: functional, cell-based
[13] = system: Ruegeria atlantica; assay: […] activity against Ruegeria atlantica assessed as inhibition zone at 50 ug/disk; format: functional; conditions: read-out: IZ
[14] = system: DLD-1; assay: Cytotoxicity against human DLD1 cells; format: functional, cell-based
[15] = system: MDA-MB-231; assay: Cytotoxicity against human MDA-MB-231 cells; format: functional, cell-based
[16] = system: ACHN; assay: Cytotoxicity against human ACHN cells; format: functional, cell-based
[17] = system: NCI-H460; assay: Cytotoxicity against human NCI-H460 cells; format: functional, cell-based
[18] = system: Ehrlich; assay: Antitumor activity against mouse Ehrlich carcinoma cells xenografted in white mouse assessed as growth inhibition at 20 mg/kg, ip for 7 days; format: functional; conditions: 168 h, read-out: GI
[19] = system: HT-29; assay: Cytotoxicity against human HT-29 cells; format: functional, cell-based
[20] = system: PC-3; assay: Cytotoxicity against human PC3 cells; format: functional, cell-based
[21] = system: MDA-MB-231; assay: Cytotoxicity against human MDA231 cells; format: functional, cell-based
[22] = system: UMUC3; assay: Cytotoxicity against human UM-UC-3 cells; format: functional, cell-based
[23] = system: MIA PaCa-2; assay: Cytotoxicity against human MIAPaCa2 cells; format: functional, cell-based
[24] = system: Escherichia coli; assay: Antibacterial activity against Escherichia coli; format: functional
[25] = system: Staphylococcus aureus; assay: Antibacterial activity against Staphylococcus aureus; format: functional
[26] = system: Candida albicans; assay: Antifungal activity against Candida albicans; format: functional
[27] = system: Trichophyton mentagrophytes; assay: Antimicrobial activity against Trichophyton mentagrophytes; format: functional
[28] = system: Enterococcus faecalis; assay: Antimicrobial activity against Streptococcus faecalis; format: functional
[29] = system: Citrobacter; assay: Antimicrobial activity against Citrobacter; format: functional
[30] = system: Klebsiella sp.; assay: Antimicrobial activity against Klebsiella sp.; format: functional
[31] = system: Enterobacter sp.; assay: Antimicrobial activity against Enterobacter sp.; format: functional
[32] = system: Salmonella sp.; assay: Antimicrobial activity against Salmonella sp.; format: functional
[33] = system: Proteus sp.; assay: Antimicrobial activity against Proteus sp.; format: functional; conditions: Proteus sp. (in: enterobacteria)
[34] = system: L1210; assay: Cytotoxicity against mouse L1210 cells; format: functional, cell-based
[35] = system: HL-60; assay: Cytotoxicity against human HL60 cells by MTT assay; format: functional, cell-based
[36] = system: SMMC-7721; assay: Cytotoxicity against human SMMC7721 cells by MTT assay; format: functional, cell-based
[37] = system: A549; assay: Cytotoxicity against human A549 cells by MTT assay; format: functional, cell-based
[38] = system: MCF7; assay: Cytotoxicity against human MCF7 cells by MTT assay; format: functional, cell-based
[39] = system: SW480; assay: Cytotoxicity against human SW480 cells by MTT assay; format: functional, cell-based
[40] = system: Bacillus subtilis; assay: Antibacterial activity against Bacillus subtilis; format: functional
[41] = system: Proteus vulgaris; assay: Antibacterial activity against Proteus vulgaris; format: functional
[42] = system: Trichophyton rubrum; assay: Antifungal activity against Trichophyton rubrum; format: functional
[43] = system: Pyricularia oryzae; assay: Antimicrobial activity against Pyricularia orizae; format: functional
[44] = system: Colletotrichum gloeosporioides; assay: Antimicrobial activity against Glomerella cingulata; format: functional
[45] = system: Saccharomyces cerevisiae; assay: Antimicrobial activity against Saccharomyces cerevisiae; format: functional
[46] = system: Cryptococcus neoformans; assay: Antimicrobial activity against Cryptococcus neoformans; format: functional
[47] = system: Nostoc commune; assay: Growth inhibition of Nostoc commune NIES 24; format: functional
[48] = system: Trichormus variabilis; assay: Growth inhibition of Anabaena variabilis NIES 23; format: functional
[49] = system: Anabaena cylindrica; assay: Growth inhibition of Anabaena cylindrica NIES 19; format: functional
[50] = system: Chlamydomonas reinhardtii; assay: Algicidal activity against Chlamydomonas reinhardtii IAM C-238; format: functional
[51] = system: Auxenochlorella pyrenoidosa; assay: Algicidal activity against Chlorella pyrenoidosa IAM C-212; format: functional
[52] = system: [Chlorella] fusca; assay: Algicidal activity against Chlorella fusca IAM C-28; format: functional; conditions: Scenedesmus fuscus
[53] = system: Dunaliella tertiolecta; assay: Algicidal activity against Dunaliella tertiolecta ATCC 30929; format: functional
[54] = system: Dunaliella salina; assay: Algicidal activity against Dunaliella salina; format: functional
[55] = system: Catharanthus roseus; assay: Herbicidal activity against Catharanthus roseus; format: functional
[56] = system: Daucus carota; assay: Herbicidal activity against Daucus carota; format: functional
[57] = system: Armoracia rusticana; assay: Herbicidal activity against Armoracia rusticana; format: functional

CN1CN([C@H]2C[C@H](O)[C@@H](CO)O2)C(=O)NC1=O
MIC [1]: 2 to 125 µg/mL (≈ 8.16 to 510 µM)
Activity [2]: 2 to 125 µg/mL
Activity [3]: 2 to 125 µg/mL
Activity [4]: 2 to 125 µg/mL
Activity [5]: 2 to 125 µg/mL
Activity [6]: 2 to 125 µg/mL
Activity [7]: 2 to 125 µg/mL
Activity [8]: 2 to 125 µg/mL
survival at 400 mg/kg [9]: 50%

COc1c(SC)c(CCN(C)C)c2sc3c(OC)c(OC)c(SC)c(CCN(C)C)c3ssc2c1OC [LISSOCLIBADIN 2]
IC50 [10]: 140 nM
IC50 [11]: 210 nM
IC50 [12]: 80 nM
zone of inhibition at 50 µg/disc [13]: 28.2 mm
IC50 [14]: 100 nM
IC50 [15]: 200 nM
IC50 [16]: 240 nM
IC50 [17]: 270 nM

COc1nnc2n(C)ncnc1-2 [PSEUDOIODININE]
inhibition in vivo at 20 mg/kg [18]: 64%

COc1cc(CCN)c2c(c1OC)SS[S+]2[O-] (stereo not drawn)
IC50 [19]: 2.4 to 11.9 nM
IC50 [20]: 2.4 to 11.9 nM
IC50 [21]: 2.4 to 11.9 nM
IC50 [22]: 2.4 to 11.9 nM
IC50 [23]: 2.4 to 11.9 nM

COc1c(O)cc(CCN)c2c1SSSSS2
MIC [24]: 0.1 to 0.6 µg/mL (≈ 0.307 to 1.84 µM)
MIC [25]: 0.1 to 0.6 µg/mL (≈ 0.307 to 1.84 µM)
MIC [26]: 40 µg/mL (≈ 123 µM)
MIC [27]: 20 µg/mL (≈ 61.4 µM)
MIC [28]: 0.1 to 0.6 µg/mL (≈ 0.307 to 1.84 µM)
MIC [29]: 0.1 to 0.6 µg/mL (≈ 0.307 to 1.84 µM)
MIC [30]: 0.1 to 0.6 µg/mL (≈ 0.307 to 1.84 µM)
MIC [31]: 0.1 to 0.6 µg/mL (≈ 0.307 to 1.84 µM)
MIC [32]: 0.1 to 0.6 µg/mL (≈ 0.307 to 1.84 µM)
MIC [33]: 0.1 to 0.6 µg/mL (≈ 0.307 to 1.84 µM)
IC50 [34]: 1 µg/mL (≈ 3.07 µM)

CN1CC[C@]23c4ccccc4N[C@H]1[C@@]21CCN2CN4c5ccccc5[C@@]56CCN(C)[C@@]45N(c4c6cccc41)[C@@H]23
IC50 [35]: > 40000 nM
IC50 [36]: > 40000 nM
IC50 [37]: > 40000 nM
IC50 [38]: > 40000 nM
IC50 [39]: > 40000 nM

C1SSCSSS1
MIC [40]: 50 µg/mL (≈ 265 µM)
MIC [41]: 50 µg/mL (≈ 265 µM)
MIC [42]: 3.12 µg/mL (≈ 16.6 µM)
MIC [26]: 6.25 µg/mL (≈ 33.2 µM)
MIC [43]: 12.5 µg/mL (≈ 66.4 µM)
MIC [44]: 12.5 µg/mL (≈ 66.4 µM)
MIC [27]: 3.12 µg/mL (≈ 16.6 µM)
MIC [45]: 6.25 µg/mL (≈ 33.2 µM)
MIC [46]: 6.25 µg/mL (≈ 33.2 µM)

Cn1ncnc2c(=O)[nH]nc1-2
MIC [47]: 20 µM (≈ 3.02 µg/mL)
MIC [48]: 30 µM (≈ 4.53 µg/mL)
MIC [49]: 30 µM (≈ 4.53 µg/mL)
MIC [50]: 30 µM (≈ 4.53 µg/mL)
MIC [51]: 30 µM (≈ 4.53 µg/mL)
MIC [52]: 5 µM (≈ 0.756 µg/mL)
MIC [53]: 20 µM (≈ 3.02 µg/mL)
MIC [54]: 15 µM (≈ 2.27 µg/mL)
MIC [55]: 1 to 2 µg/mL (≈ 6.62 to 13.2 µM)
MIC [56]: 1 to 2 µg/mL (≈ 6.62 to 13.2 µM)
MIC [57]: 1 to 2 µg/mL (≈ 6.62 to 13.2 µM)
MIC [40]: 6 µg/mL (≈ 39.7 µM)
MIC [24]: 8 µg/mL (≈ 52.9 µM)
MIC [41]: 12 µg/mL (≈ 79.4 µM)
MIC [1]: 7 µg/mL (≈ 46.3 µM)
